Laboratory results published in ChEMBL document CHEMBL1201862, “PubChem BioAssay data set” (2004).
Calls of active or inactive are those of the source.

Tests used:
[1] = target: Cytochrome P450 2C9 (Homo sapiens, UniProt P11712)
[2] = target: T1, Cytochrome P450 1A2 (Homo sapiens, UniProt P05177);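 further: PubChem cytochrome P450 panel assay, CYP1A2 panel member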
T1 sequence (P05177 whole entry): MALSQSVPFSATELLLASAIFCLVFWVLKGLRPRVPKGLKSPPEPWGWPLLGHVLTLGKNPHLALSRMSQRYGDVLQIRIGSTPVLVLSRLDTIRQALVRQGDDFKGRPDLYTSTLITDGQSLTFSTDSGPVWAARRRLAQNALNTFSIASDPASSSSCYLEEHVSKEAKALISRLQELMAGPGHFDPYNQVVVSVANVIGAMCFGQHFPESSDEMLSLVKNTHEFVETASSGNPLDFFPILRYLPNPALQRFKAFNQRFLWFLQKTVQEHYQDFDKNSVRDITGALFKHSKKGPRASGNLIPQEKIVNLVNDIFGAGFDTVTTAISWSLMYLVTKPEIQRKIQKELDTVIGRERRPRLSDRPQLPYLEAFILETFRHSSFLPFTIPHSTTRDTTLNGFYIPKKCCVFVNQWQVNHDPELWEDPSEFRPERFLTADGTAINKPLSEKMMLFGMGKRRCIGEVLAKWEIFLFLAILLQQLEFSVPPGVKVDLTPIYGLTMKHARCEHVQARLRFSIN

[3] = target: T2, Calpain-2 catalytic subunit (Sus scrofa, UniProt P43367); test: pig calpain II inhibitor potency, dose response, biochemical, fluorogenic peptide substrate (AID 1420); format: functional
T2 sequence (P43367 whole entry): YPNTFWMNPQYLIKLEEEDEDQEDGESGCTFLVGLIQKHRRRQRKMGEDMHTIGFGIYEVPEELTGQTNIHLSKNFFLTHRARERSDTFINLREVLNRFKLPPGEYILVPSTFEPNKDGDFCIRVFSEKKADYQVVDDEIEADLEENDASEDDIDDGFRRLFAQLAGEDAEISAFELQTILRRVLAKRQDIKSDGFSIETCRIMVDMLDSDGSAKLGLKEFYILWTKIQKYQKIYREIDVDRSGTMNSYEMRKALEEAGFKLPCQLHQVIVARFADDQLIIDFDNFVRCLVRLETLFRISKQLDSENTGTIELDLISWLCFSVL

[4] = target: Nonstructural protein 1 (Influenza A virus, UniProt Q194T2); format: functional, Influenza A virus (A/California/07/2009(H1N1))
[5] = target: T3, Ubiquitin-conjugating enzyme E2 N (Homo sapiens, UniProt P61088); format: functional;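 further: Dose-response confirmation in a TR-FRET assay detecting UBC13-driven polyubiquitin chain formation, inhibition measured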
T3 sequence (P61088 whole entry): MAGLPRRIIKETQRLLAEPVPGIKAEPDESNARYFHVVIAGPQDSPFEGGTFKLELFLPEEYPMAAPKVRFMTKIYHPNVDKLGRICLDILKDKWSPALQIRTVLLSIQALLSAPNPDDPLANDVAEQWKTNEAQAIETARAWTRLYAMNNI

[6] = C. albicans growth with fluconazole, confirmation, fluorescence, retest (AID 2467); format: functional, cell-based
[7] = NIH-3T3 fibroblast cytotoxicity, dose response, cytotoxicity control, cell-based, fluorescence, Alamar Blue, secondary assay (AID 2327); format: functional;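 further: NIH-3T3 mouse fibroblasts cultured with fluconazole at 8 µg/mL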
[8] = system: BJ; test: cytotoxicity toward BJ-TERT-LT-ST fibroblasts, dose response, cell-based, RAS-independent, luminescence (AID 1935); format: functional; settings: Homo sapiens;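 further: BJ fibroblasts immortalized with TERT plus LT and ST oncogenes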
[9] = system: BJ; test: cells; format: functional, cell-based; settings: Homo sapiens
[10] = cytotoxicity toward DRD oncogenic fibroblasts, dose response, cell-based, non-viral oncogenic, luminescence (AID 1934); format: functional; settings: Homo sapiens
[11] = system: BJ; test: cytotoxicity toward BJ-TERT fibroblasts, dose response, cell-based, RAS-independent, luminescence (AID 1933); format: functional; settings: Homo sapiens
[12] = target: Cytochrome P450 2D6 (Homo sapiens, UniProt P10635);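 further: CYP2D6 member of a cytochrome P450 panel assay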
[13] = inhibitors of clade B AD8 Env fusion, dose response, cell-based, cherry-pick (AID 652062); format: functional;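 further: luciferase signal from cell-cell fusion driven by HIV-1 clade B AD8 Env; potency is for inhibitors of fusion seen as a drop in luminescence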
[14] = system: SN12K1; test: cells; format: functional; settings: Homo sapiens
[15] = system: P388/ADR; test: cells; format: functional; settings: Mus musculus
[16] = system: P388; test: cells; format: functional; settings: Mus musculus
[17] = inhibitors of intracellular T. cruzi replication, confirmation, NIH3T3 host cells, beta-gal luminescence (AID 2044); format: functional, cell-based;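 further: intracellular parasites grown in NIH/3T3 mouse fibroblasts as host cells; luminescent beta-galactosidase reporter signal from transgenic T. cruzi replicating inside host cells; inhibitors lower the luminescence signal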
[18] = target: Cytochrome P450 3A4 (Homo sapiens, UniProt P08684);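 further: CYP3A4 tested as one member of a cytochrome P450 panel screen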
[19] = target: Cytochrome P450 2C19 (Homo sapiens, UniProt P33261); test: Cytochrome panel assay with activity outcomes. Panel member name: p450-cyp2c19 Compounds with AC50 equal or less than 10 uM are considered active; format: functional; settings: read-out: AC50
[20] = target: T4, Replicative DNA helicase DnaB (Mycobacterium tuberculosis, UniProt P9WMR3); test: DnaB intein splicing inhibitors, dose response, biochemical, cell-free fluorescence (AID 449749); format: functional
T4 sequence (P9WMR3 whole entry): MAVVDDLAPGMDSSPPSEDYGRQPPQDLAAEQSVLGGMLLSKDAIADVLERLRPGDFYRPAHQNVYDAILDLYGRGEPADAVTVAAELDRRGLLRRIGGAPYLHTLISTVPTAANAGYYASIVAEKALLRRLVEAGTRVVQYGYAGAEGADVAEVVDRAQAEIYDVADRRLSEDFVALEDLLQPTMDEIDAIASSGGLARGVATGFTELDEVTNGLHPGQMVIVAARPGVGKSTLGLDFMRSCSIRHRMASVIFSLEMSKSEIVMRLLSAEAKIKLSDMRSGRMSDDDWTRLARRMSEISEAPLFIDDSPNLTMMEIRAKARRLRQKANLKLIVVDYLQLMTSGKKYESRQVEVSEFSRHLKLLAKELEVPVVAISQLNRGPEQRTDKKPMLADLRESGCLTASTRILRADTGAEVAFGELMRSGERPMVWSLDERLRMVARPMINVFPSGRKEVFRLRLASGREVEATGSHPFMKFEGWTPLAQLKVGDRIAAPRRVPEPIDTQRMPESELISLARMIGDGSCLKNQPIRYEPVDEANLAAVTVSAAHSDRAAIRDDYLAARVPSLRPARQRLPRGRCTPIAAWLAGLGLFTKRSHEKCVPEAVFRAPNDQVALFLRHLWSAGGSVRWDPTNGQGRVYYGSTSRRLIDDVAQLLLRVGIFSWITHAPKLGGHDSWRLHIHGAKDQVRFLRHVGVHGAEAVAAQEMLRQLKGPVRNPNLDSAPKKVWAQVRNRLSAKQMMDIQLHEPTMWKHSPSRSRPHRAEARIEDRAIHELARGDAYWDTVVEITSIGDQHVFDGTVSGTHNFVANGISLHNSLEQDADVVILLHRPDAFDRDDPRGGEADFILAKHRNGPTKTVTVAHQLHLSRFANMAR

[21] = target: T5, Protein RecA (Mycobacterium tuberculosis, UniProt P9WHJ3); test: Fluorescence Cell-Free Homogeneous Dose Retest to Identify Inhibitors of RecA-Intein Splicing Activity. [Related pubchem assays (depositor defined):AID2097, AID2223, AID489010, AID492950]; format: functional
T5 sequence (P9WHJ3 whole entry): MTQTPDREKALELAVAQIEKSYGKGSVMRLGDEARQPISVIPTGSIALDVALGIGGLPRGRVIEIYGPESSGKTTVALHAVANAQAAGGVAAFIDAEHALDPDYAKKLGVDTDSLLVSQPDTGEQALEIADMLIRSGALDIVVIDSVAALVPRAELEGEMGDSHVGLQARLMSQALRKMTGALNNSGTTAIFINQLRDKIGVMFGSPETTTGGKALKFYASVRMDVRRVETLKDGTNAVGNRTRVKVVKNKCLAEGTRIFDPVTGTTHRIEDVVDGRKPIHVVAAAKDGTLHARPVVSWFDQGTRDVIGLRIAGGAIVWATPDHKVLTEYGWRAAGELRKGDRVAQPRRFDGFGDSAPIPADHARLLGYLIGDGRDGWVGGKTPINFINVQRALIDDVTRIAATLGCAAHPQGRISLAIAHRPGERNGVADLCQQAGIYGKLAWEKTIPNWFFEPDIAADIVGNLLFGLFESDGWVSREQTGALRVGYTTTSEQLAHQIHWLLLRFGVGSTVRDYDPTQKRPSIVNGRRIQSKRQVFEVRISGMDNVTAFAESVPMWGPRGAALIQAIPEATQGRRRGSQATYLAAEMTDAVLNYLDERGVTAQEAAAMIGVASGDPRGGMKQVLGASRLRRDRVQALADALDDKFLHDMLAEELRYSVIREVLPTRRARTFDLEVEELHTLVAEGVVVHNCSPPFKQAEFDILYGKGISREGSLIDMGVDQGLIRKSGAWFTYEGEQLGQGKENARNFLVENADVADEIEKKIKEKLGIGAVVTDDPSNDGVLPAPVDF

Sequence of Cytochrome P450 2C9 (P11712 whole entry): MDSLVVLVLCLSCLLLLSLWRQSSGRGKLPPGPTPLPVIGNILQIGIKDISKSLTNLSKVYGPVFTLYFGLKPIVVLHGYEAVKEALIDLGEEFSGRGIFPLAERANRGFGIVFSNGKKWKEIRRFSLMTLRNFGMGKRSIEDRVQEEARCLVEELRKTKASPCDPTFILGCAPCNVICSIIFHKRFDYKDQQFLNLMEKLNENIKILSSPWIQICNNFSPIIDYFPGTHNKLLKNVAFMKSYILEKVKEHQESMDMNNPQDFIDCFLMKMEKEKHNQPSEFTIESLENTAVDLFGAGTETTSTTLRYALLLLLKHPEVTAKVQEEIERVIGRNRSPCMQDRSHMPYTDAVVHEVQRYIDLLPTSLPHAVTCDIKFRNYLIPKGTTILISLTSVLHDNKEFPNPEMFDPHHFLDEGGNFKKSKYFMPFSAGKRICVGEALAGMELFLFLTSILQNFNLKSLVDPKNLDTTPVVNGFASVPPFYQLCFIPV
Sequence of Cytochrome P450 2D6 (P10635 whole entry, the tested form may be a part): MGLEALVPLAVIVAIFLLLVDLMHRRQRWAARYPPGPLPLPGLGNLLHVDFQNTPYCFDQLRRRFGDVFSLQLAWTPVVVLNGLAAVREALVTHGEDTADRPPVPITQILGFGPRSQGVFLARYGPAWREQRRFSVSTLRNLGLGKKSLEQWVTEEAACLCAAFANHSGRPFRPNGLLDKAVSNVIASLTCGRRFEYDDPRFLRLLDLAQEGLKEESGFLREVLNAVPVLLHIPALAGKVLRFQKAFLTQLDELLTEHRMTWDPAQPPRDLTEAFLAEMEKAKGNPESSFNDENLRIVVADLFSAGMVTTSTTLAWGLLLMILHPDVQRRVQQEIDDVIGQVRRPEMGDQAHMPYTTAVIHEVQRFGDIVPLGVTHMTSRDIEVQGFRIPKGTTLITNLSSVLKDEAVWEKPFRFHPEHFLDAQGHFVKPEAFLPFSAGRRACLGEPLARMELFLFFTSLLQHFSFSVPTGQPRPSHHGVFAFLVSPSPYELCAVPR
Sequence of Cytochrome P450 2C19 (P33261 whole entry): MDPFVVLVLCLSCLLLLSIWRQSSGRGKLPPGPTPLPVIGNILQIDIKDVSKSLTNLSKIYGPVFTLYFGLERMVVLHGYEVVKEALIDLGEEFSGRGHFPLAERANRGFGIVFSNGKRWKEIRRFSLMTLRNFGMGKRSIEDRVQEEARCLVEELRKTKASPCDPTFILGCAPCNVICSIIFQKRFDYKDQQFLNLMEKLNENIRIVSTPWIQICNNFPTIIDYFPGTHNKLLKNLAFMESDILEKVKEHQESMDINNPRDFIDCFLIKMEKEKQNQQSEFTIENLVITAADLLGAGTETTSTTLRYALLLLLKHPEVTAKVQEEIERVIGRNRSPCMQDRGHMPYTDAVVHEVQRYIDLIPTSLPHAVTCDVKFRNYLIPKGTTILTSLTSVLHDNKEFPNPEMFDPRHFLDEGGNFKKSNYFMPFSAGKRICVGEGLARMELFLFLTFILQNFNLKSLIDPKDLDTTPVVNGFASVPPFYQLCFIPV
Sequence of Cytochrome P450 3A4 (P08684 whole entry): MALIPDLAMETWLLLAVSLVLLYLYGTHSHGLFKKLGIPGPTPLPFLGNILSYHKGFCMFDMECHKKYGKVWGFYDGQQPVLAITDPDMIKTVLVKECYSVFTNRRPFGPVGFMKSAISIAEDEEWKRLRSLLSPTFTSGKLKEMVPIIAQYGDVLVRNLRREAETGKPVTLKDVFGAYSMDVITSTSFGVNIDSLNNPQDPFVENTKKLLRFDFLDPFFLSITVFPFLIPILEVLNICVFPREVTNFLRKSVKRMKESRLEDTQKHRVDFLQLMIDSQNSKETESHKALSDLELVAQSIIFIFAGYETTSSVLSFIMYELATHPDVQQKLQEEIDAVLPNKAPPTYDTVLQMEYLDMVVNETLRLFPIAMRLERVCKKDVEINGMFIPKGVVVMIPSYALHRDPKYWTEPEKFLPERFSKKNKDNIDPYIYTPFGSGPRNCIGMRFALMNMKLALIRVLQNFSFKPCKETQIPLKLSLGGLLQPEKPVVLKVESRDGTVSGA
Sequence of Nonstructural protein 1 (Q194T2 whole entry): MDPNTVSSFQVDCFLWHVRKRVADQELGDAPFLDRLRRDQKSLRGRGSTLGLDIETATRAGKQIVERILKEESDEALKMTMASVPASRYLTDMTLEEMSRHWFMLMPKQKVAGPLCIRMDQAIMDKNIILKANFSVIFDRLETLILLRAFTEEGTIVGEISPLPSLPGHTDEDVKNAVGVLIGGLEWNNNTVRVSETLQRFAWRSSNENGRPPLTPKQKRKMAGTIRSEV

With `CN(C)C(=O)c1ccc(-c2ccc3ncnc(N4CCC(C(=O)O)CC4)c3c2)cc1` the AC50 [1] was “inconclusive” and the AC50 [2] was 39.8 µM (inconclusive).
With `O=C(CSCc1c(F)cccc1Cl)NCC1CCCO1` (stereo unspecified) the AC50 [1] was “inconclusive”.
For `CCN(CC)S(=O)(=O)c1ccc(C)c(NC(S)=NNC(=O)C2CC2)c1`, the IC50 [3] was > 50 µM (not active).
For `CN(C)CCCN(C(=O)c1ccc2c(c1)CCCC2)c1nc2ccc(Cl)cc2s1`, the IC50 [4] was > 100 µM (active) and the IC50 [5] was > 20 µM (inactive).
For `COC(=O)C1CCN(Cc2c(C(=O)N3C[C@@H](C)O[C@@H](C)C3)nc3ccc(Cl)cn23)CC1`, the EC50 [6] was > 38 µM (not active) and the EC50 [7] was > 150 µM (inactive).
For `COc1cc(C(=O)NCc2ccc3c(c2)cc(C)n3C)cc(OC)c1OC`, the IC50 [3] was > 50 µM (not active).
In the case of `Oc1c(Cl)cc(CN2CCCCC2)c2cccnc12`, the EC50 [8] is reported as 76.1 µM (inconclusive), the EC50 [9] is reported as 25.9 µM (inconclusive) and the EC50 [10] is reported as 53.1 µM (inconclusive). For the same compound, the EC50 [11] was 1.39 µM (active).
For `O=C(Nc1cccc(C(F)(F)F)c1)c1ccc(Cn2cc(Br)cn2)o1`, the AC50 [12] was 22.4 µM (inconclusive) and the AC50 [13] was 29.6 µM (active).
For `COCCCN=C(S)NNC(=O)C1CC1c1ccc(C(C)(C)C)cc1` (stereo unspecified), the IC50 [3] was > 50 µM (not active).
For `O=NN(CCCl)C(=O)N[C@H]1CC[C@@H](O)CC1`, the GI50 [14] was 28.2 µM (inactive), the GI50 [15] was 3.41 µM (inactive) and the GI50 [16] was 3.76 µM (inactive).
With `CC(C)NC(=O)OCc1c(CO)c2c(n1C)-c1ccccc1CC2` the GI50 [14] was 18.1 µM (inactive), the GI50 [15] was 6.9 µM (inactive) and the GI50 [16] was 7.59 µM (inactive).
With `C/C(=N\NC(=O)c1ccc(Cl)cc1)c1ccc(Br)s1` the EC50 [17] was 1.91 µM (active), the AC50 [18] was 14.1 µM (inconclusive) and the AC50 [19] was 17.8 µM (inconclusive). The AC50 [1] was “inconclusive”.
For `O=c1[nH]cc(/N=C/c2cc([N+](=O)[O-])ccc2O)c(=O)[nH]1`, the AC50 [20] was 5.98 µM (active), the EC50 [6] was > 38 µM (not active) and the EC50 [21] was 5.48 µM (active). For the same compound, the EC50 [7] was > 150 µM (inactive).
In the case of `CC(C)(C)NC[C@H](O)COc1nsnc1N1CCOCC1` [TIMOLOL], the AC50 [1] is reported as “inactive”.
